The test has as its target human PDE1B enzyme (Homo sapiens (Human), UniProt Q01064). Briefly: IMAP TR-FRET PDE1B enzymatic assay. Type of test: biochemical. The following applies: negative log of half-maximal molar inhibitory concentration, 200 nM FAM-cAMP, values given as bins; for IC50: read-out: PDE1b (pIC50) (converted). An outline of the steps:
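Full-length GST-tagged human PDE1B (250 pg/well) in IMAP BSA buffer with 10 U/ml calmodulin and 2.5 mM CaCl2; compound pre-incubated 5 min at room temperature, then 200 nM (final) FAM-cAMP for 30 min. IMAP binding reagent/Tb added, 1 h; TR-FRET 520/490 ratio read. IC50 from sigmoidal dose-response fit.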
Background: TR-FRET usually uses a lanthanide donor and a delayed reading to cut background.

Turning to `Cc1oc2ncnc(NC3(C)CC3)c2c1C(=O)N1CCN(c2nc(Cl)c(Cl)c(Cl)c2Cl)CC1` [Example 308, 6-Methyl-N-(1-methylcyclopropyl)-5-[4-(tetrachloropyridin-2-yl)piperazine-1-carbonyl]furo[2,3-d]pyrimidin-4-amine], the IC50 is 10 to 100 nM.
As to `Cc1oc2ncnc(NC3(C)CC3)c2c1C(=O)N1CCC(c2ncccn2)CC1` [Example 309, 6-Methyl-N-(1-methylcyclopropyl)-5-[4-(pyrimidin-2-yl)piperidine-1-carbonyl]furo[2,3-d]pyrimidin-4-amine], the “PDE1b (pIC50)” value is reported as greater than 8.
With `Cc1oc2ncnc(NC3(C)CC3)c2c1C(=O)NC1CCCc2cccnc21` (centres unmarked) [Example 310, 6-Methyl-4-[(1-methylcyclopropyl)amino]-N-(5,6,7,8-tetrahydroquinolin-8-yl)furo[2,3-d]pyrimidine-5-carboxamide], the IC50 was 100 to 1000 nM.
On the same count and under the same terms, under `Cc1oc2ncnc(NC3(C)CC3)c2c1C(=O)NC1(c2cnccn2)CC1` [Example 311, 6-Methyl-4-[(1-methylcyclopropyl)amino]-N-[1-(pyrazin-2-yl)cyclopropyl]furo[2,3-d]pyrimidine-5-carboxamide] stands 10 to 100 nM.
For the compound `Cc1oc2ncnc(NC3(C)CC3)c2c1C(=O)NCc1ccc(Cl)nc1` [Example 312, N-[(6-Chloropyridin-3-yl)methyl]-6-methyl-4-[(1-methylcyclopropyl)amino]furo[2,3-d]pyrimidine-5-carboxamide], the “PDE1b (pIC50)” value was greater than 8.
Turning to `Cc1oc2ncnc(NC3(C)CC3)c2c1C(=O)NCc1cnc(Cl)nc1` [Example 313, N-[(2-Chloropyrimidin-5-yl)methyl]-6-methyl-4-[(1-methylcyclopropyl)amino]furo[2,3-d]pyrimidine-5-carboxamide], the IC50 was 10 to 100 nM.
The same measure, in the same setting: under `Cc1oc2ncnc(NC3(C)CC3)c2c1C(=O)N1CC(F)(c2ccccc2)C1` [Example 314, 5-(3-Fluoro-3-phenylazetidine-1-carbonyl)-6-methyl-N-(1-methylcyclopropyl)furo[2,3-d]pyrimidin-4-amine] stands 10 to 100 nM; under `Cc1oc2ncnc(NC3(C)CC3)c2c1C(=O)NC(C)c1cnccn1` (centres unmarked) [Example 315, 6-Methyl-4-[(1-methylcyclopropyl)amino]-N-[1-(pyrazin-2-yl)ethyl]furo[2,3-d]pyrimidine-5-carboxamide], 10 to 100 nM; under `Cc1oc2ncnc(NC3(C)CC3)c2c1C(=O)NC1CCc2cccnc21` (centres unmarked) [Example 316, N-{5H,6H,7H-Cyclopenta[b]pyridin-7-yl}-6-methyl-4-[(1-methylcyclopropyl)amino]furo[2,3-d]pyrimidine-5-carboxamide], 100 to 1000 nM.
The same measure, in the same setting: the same measure for `Cc1oc2ncnc(NC3(C)CC3)c2c1C(=O)NC(C)c1ccncn1` (centres unmarked) [Example 317, 6-Methyl-4-[(1-methylcyclopropyl)amino]-N-[1-(pyrimidin-4-yl)ethyl]furo[2,3-d]pyrimidine-5-carboxamide]: 10 to 100 nM.
Consider `Cc1oc2ncnc(NC3(C)CC3)c2c1C(=O)NCc1cc(Br)no1` [Example 318, N-[(3-Bromo-1,2-oxazol-5-yl)methyl]-6-methyl-4-[(1-methylcyclopropyl)amino]furo[2,3-d]pyrimidine-5-carboxamide], for which the IC50 is 10 to 100 nM.
On the same count and under the same terms, the same measure for `Cc1cc(CNC(=O)c2c(C)oc3ncnc(NC4(C)CC4)c23)on1` [Example 319, 6-Methyl-N-[(3-methyl-1,2-oxazol-5-yl)methyl]-4-[(1-methylcyclopropyl)amino]furo[2,3-d]pyrimidine-5-carboxamide]: 10 to 100 nM; for `Cc1oc2ncnc(NC3(C)CC3)c2c1C(=O)N1CCC(c2nccn2C)C1` (centres unmarked) [Example 320, 6-Methyl-5-[3-(1-methyl-1H-imidazol-2-yl)pyrrolidine-1-carbonyl]-N-(1-methylcyclopropyl)furo[2,3-d]pyrimidin-4-amine]: 10 to 100 nM.
On the same count and under the same terms, under `Cc1oc2ncnc(NC3(C)CC3)c2c1C(=O)N1CCC(c2cnn(C)c2)C1` (centres unmarked) [Example 321, 6-Methyl-5-[3-(1-methyl-1H-pyrazol-4-yl)pyrrolidine-1-carbonyl]-N-(1-methylcyclopropyl)furo[2,3-d]pyrimidin-4-amine] stands 10 to 100 nM.
For the compound `CCc1cc(CNC(=O)c2c(C)oc3ncnc(NC4(C)CC4)c23)no1` [Example 322, N-[(5-Ethyl-1,2-oxazol-3-yl)methyl]-6-methyl-4-[(1-methylcyclopropyl)amino]furo[2,3-d]pyrimidine-5-carboxamide], the “PDE1b (pIC50)” value was greater than 8.
In the case of `Cc1oc2ncnc(NC3(C)CC3)c2c1C(=O)NCc1cc(C2CC2)on1` [Example 323, N-[(5-Cyclopropyl-1,2-oxazol-3-yl)methyl]-6-methyl-4-[(1-methylcyclopropyl)amino]furo[2,3-d]pyrimidine-5-carboxamide], the “PDE1b (pIC50)” value is reported as greater than 8.
As for `Cc1oc2ncnc(NC3(C)CC3)c2c1C(=O)NCc1cc(C(C)C)on1` [Example 324, 6-Methyl-4-[(1-methylcyclopropyl)amino]-N-{[5-(propan-2-yl)-1,2-oxazol-3-yl]methyl}furo[2,3-d]pyrimidine-5-carboxamide], the IC50 was 10 to 100 nM.
The same measure, in the same setting: under `Cc1oc2ncnc(NC3(C)CC3)c2c1C(=O)NCc1cc(-c2ccc(F)cc2)on1` [Example 325, N-{[5-(4-Fluorophenyl)-1,2-oxazol-3-yl]methyl}-6-methyl-4-[(1-methylcyclopropyl)amino]furo[2,3-d]pyrimidine-5-carboxamide] stands 10 to 100 nM; under `COc1ccc(-c2cc(CNC(=O)c3c(C)oc4ncnc(NC5(C)CC5)c34)no2)cc1` [Example 326, N-{[5-(4-Methoxyphenyl)-1,2-oxazol-3-yl]methyl}-6-methyl-4-[(1-methylcyclopropyl)amino]furo[2,3-d]pyrimidine-5-carboxamide], 10 to 100 nM; under `COc1cnc(N2CCN(C(=O)c3c(C)oc4ncnc(NC5(C)CC5)c34)CC2)nc1` [Example 327, 5-[4-(5-Methoxypyrimidin-2-yl)piperazine-1-carbonyl]-6-methyl-N-(1-methylcyclopropyl)furo[2,3-d]pyrimidin-4-amine], 10 to 100 nM.
Same read-out and setting: the same measure for `Cc1oc2ncnc(NC3(C)CC3)c2c1C(=O)NCc1cc(C(N)=O)on1` [Example 328, 3-[({6-Methyl-4-[(1-methylcyclopropyl)amino]furo[2,3-d]pyrimidin-5-yl}formamido)methyl]-1,2-oxazole-5-carboxamide]: 10 to 100 nM.
With `Cc1oc2ncnc(NC3(C)CC3)c2c1C(=O)N1CCc2c(O)cccc2C1` [Example 329, 2-{6-Methyl-4-[(1-methylcyclopropyl)amino]furo[2,3-d]pyrimidine-5-carbonyl}-1,2,3,4-tetrahydroisoquinolin-5-ol], the “PDE1b (pIC50)” value is on record as greater than 8.
For `Cc1oc2ncnc(NC3(C)CC3)c2c1C(=O)N1CCc2cc(O)ccc2C1` [Example 330, 2-{6-Methyl-4-[(1-methylcyclopropyl)amino]furo[2,3-d]pyrimidine-5-carbonyl}-1,2,3,4-tetrahydroisoquinolin-6-ol], the IC50 is 10 to 100 nM.
Same read-out and setting: under `Cc1oc2ncnc(NC3(C)CC3)c2c1C(=O)N1CCc2cccc(O)c2C1` [Example 331, 2-{6-Methyl-4-[(1-methylcyclopropyl)amino]furo[2,3-d]pyrimidine-5-carbonyl}-1,2,3,4-tetrahydroisoquinolin-8-ol] stands 10 to 100 nM.
Still for that read-out and setting: the same measure for `Cc1oc2ncnc(NC3(C)CC3)c2c1C(=O)N1CCc2ccc(O)cc2C1` [Example 332, 2-{6-Methyl-4-[(1-methylcyclopropyl)amino]furo[2,3-d]pyrimidine-5-carbonyl}-1,2,3,4-tetrahydroisoquinolin-7-ol]: 10 to 100 nM; for `Cc1oc2ncnc(NC3(C)CC3)c2c1C(=O)N1CCc2ncc(O)cc2C1` [Example 333, 6-{6-Methyl-4-[(1-methylcyclopropyl)amino]furo[2,3-d]pyrimidine-5-carbonyl}-5,6,7,8-tetrahydro-1,6-naphthyridin-3-ol]: 100 to 1000 nM.
In the case of `Cc1oc2ncnc(NC3(C)CC3)c2c1C(=O)N1CCC(c2ncc(F)cc2Cl)CC1` [Example 334, 5-[4-(3-Chloro-5-fluoropyridin-2-yl)piperidine-1-carbonyl]-6-methyl-N-(1-methylcyclopropyl)furo[2,3-d]pyrimidin-4-amine], the “PDE1b (pIC50)” value is given as greater than 8.
Consider `Cc1oc2ncnc(NC3(C)CC3)c2c1C(=O)N1CCC(c2ncc(Cl)cn2)C1` (centres unmarked) [Example 335, 5-[3-(5-Chloropyrimidin-2-yl)pyrrolidine-1-carbonyl]-6-methyl-N-(1-methylcyclopropyl)furo[2,3-d]pyrimidin-4-amine], for which the “PDE1b (pIC50)” value is given as greater than 8.
For the compound `COc1cc(CNC(=O)c2c(C)oc3ncnc(NC4(C)CC4)c23)ccc1F` [Example 336, N-[(4-Fluoro-3-methoxyphenyl)methyl]-6-methyl-4-[(1-methylcyclopropyl)amino]furo[2,3-d]pyrimidine-5-carboxamide], the IC50 was 10 to 100 nM.
Still for that read-out and setting: the same measure for `Cc1oc2ncnc(NC3(C)CC3)c2c1C(=O)N1CCc2c(cc[nH]c2=O)C1` [Example 337, 6-{6-Methyl-4-[(1-methylcyclopropyl)amino]furo[2,3-d]pyrimidine-5-carbonyl}-1,2,5,6,7,8-hexahydro-2,6-naphthyridin-1-one]: 10 to 100 nM.
For the compound `Cc1oc2ncnc(NC3(C)CC3)c2c1C(=O)N1CCc2ccc(O)cc2C1C` (centres unmarked) [Example 338, 1-Methyl-2-{6-methyl-4-[(1-methylcyclopropyl)amino]furo[2,3-d]pyrimidine-5-carbonyl}-1,2,3,4-tetrahydroisoquinolin-7-ol], the “PDE1b (pIC50)” value was greater than 8.
Turning to `Cc1oc2ncnc(NC3(C)CC3)c2c1C(=O)N1CCC(c2cncc(F)c2)C1` (centres unmarked) [Example 339, 5-[3-(5-Fluoropyridin-3-yl)pyrrolidine-1-carbonyl]-6-methyl-N-(1-methylcyclopropyl)furo[2,3-d]pyrimidin-4-amine], the IC50 was 10 to 100 nM.

Values taken from patent US20250145633A1, “SUBSTITUTED FURANOPYRIMIDINE COMPOUNDS AS PDE1 INHIBITORS” (Dart NeuroScience, LLC, priority 2017, published 2025).
